# Test results reported in US9216983B2, “Dihydroorotate dehydrogenase inhibitors with selective anti-malarial activity” (BOARD OF REGENTS, UNIVERSITY OF TEXAS SYSTEM, priority 2007, dated 2015).
# Where “and” joins values, the source holds several entries; their conditions need not be identical. Equal values may be shown once. Read-outs that look alike come from different tables or passages of the source.
# Key:
# PfDHODH = target: T1, PfDHODH (Plasmodium falciparum, UniProt Q08210); experiment: biochemical
# T1 sequence (Q08210 24-569): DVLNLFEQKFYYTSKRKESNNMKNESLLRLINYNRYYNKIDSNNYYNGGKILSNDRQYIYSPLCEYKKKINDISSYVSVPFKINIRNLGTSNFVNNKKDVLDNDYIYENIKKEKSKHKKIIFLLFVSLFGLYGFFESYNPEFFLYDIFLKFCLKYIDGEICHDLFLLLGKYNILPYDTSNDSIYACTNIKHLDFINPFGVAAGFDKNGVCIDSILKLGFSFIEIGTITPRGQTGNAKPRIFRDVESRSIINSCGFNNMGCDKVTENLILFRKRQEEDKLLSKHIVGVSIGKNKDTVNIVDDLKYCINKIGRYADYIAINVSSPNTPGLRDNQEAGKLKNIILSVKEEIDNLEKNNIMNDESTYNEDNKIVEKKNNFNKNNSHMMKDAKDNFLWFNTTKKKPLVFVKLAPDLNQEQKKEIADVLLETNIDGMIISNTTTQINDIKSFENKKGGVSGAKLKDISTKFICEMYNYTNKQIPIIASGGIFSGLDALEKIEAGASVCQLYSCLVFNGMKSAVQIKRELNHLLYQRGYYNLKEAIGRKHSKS
# Experimental: (§1) Briefly, the assay solution contained 100 mM HEPES, pH 8.0, 150 mM NaCl, 10% glycerol, 0.1% Triton X-100, 20 micro molar COQD (coenzyme QD), 200 micro molar L-dihydroorotate, and 120 micro molar DCIP. Reactions are initiated by addition of enzyme to a final concentration in the range of about […] to about 50 nM while maintaining the temperature of a circulating water bath at 25° C.
# (§2) Assay solutions were prepared as discussed above, except that DCIP is not present and the solution is depleted of oxygen by the inclusion of an oxidase/reductase system, such as, 0.1 mg/ml of glucose oxidase, 0.02 mg/ml catalase and 50 mM glucose. The data obtained is fitted to equation 1, to determine the IC50 values of the representative compounds.
# PbDHODH = PbDHODH (Plasmodium berghei, UniProt A0A509AEH5); experiment: DHODH enzyme inhibition assay, PbDHODH; format: biochemical, P. berghei; conditions: Table 3, average of the determinations; read-out: PbDHODH IC50 Ave (converted)
# Experimental: as §1, §2
# P. falciparum = experiment: Inhibition of cell proliferation, 3H-hypoxanthine uptake in P. falciparum-infected erythrocytes; format: cell-based
# From the text: [formula] II. In Vitro Evaluation of Compound Efficacy on the Human Malaria Parasite, P. falciparum.
# [1] = Pharmacokinetic analysis after single oral dose in mice; format: in vivo; conditions: for peak plasma concentration: FIG. 1A
# Experimental: Pharmacokinetics of the inventive compounds was studied individually in non-fasted male Swiss outbred mice weighing 23-33 g. Mice had access to food and water ad libitum throughout the pre- and post-dose sampling period. Compounds were administered orally by gavage (0.1 mL dose volume per mouse) in a suspension of aqueous vehicle (0.5% w/v sodium caboxymethylcellulose, 0.5% v/v benzyl alcohol and 0.4% v/v Tween 80). A single blood sample was collected from each mouse via cardiac puncture at each indicated time point and transferred to heparinised tubes. Blood samples were centrifuged immediately, supernatant plasma was removed and stored at −20° C. until analysis (within 1-2 weeks). Plasma samples were assayed by LC-MS following protein precipitation with acetonitrile and the concentration of drug in plasma was determined. Pharmacokinetic parameters were calculated on the basis of plasma concentration-time profiles that used the mean plasma concentration at each sample time.
# P. berghei = experiment: Standard P. berghei mouse model of infection; format: in vivo; conditions: mice, oral
# Experimental: (A) The standard P. berghei mouse model for infection is utilized to evaluate the efficacy of candidate compounds, according to the invention, against parasites in vivo. See review of Fidock, et al. (2004) Nature Rev. Drug Discovery 3, 509-20. Compounds are dosed either orally or IP, with the exact regimens (e.g. frequency of dosing, drug concentrations at dosing) determined based on the pharmocokinetic profiles of the individual analogs. […] Inhibition of parasite growth is determined microscopically by staining a thin smear of blood obtained from the test animal using a Wright-Giemsa stain.
# hDHODH = hDHODH (Homo sapiens, UniProt Q02127); experiment: DHODH enzyme inhibition assay, hDHODH; format: biochemical; conditions: Table 1; read-out: IC50 hDHODH
# Experimental: as §1, §2
# [2] = Plasmodium falciparum, 3D7, Erythrocyte, Table 3, 3D7, single determinations, read-out: P. falciparum 3D7 EC50 (converted)
# [3] = for a 2.5-fold increase in dose, 20 to 50 mg/kg
# [4] = Table 5, read-out: PfDHODH IC50
# [5] = Plasmodium falciparum, 3D7, Erythrocyte, Table 5, 3D7 cells, read-out: EC50 P. falciparum 3D7 cells
# [6] = Table 1, read-out: IC50 PfDHODH
# [7] = Plasmodium falciparum, Erythrocyte, Table 1, read-out: EC50 P. falciparum
# Sequence of hDHODH (Q02127 whole entry): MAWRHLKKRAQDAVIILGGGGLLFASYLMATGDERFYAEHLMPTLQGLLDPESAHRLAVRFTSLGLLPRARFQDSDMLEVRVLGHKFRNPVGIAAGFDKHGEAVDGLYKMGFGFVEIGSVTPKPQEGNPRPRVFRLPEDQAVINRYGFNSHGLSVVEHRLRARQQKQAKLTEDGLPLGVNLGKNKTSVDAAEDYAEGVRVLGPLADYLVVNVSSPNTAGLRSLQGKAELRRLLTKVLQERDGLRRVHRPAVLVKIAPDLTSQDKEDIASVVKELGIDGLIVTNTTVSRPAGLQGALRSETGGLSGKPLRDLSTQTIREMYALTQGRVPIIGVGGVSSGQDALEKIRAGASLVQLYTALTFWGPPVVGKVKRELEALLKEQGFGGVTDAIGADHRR
# Sequence of PbDHODH (A0A509AEH5 entry or part of it): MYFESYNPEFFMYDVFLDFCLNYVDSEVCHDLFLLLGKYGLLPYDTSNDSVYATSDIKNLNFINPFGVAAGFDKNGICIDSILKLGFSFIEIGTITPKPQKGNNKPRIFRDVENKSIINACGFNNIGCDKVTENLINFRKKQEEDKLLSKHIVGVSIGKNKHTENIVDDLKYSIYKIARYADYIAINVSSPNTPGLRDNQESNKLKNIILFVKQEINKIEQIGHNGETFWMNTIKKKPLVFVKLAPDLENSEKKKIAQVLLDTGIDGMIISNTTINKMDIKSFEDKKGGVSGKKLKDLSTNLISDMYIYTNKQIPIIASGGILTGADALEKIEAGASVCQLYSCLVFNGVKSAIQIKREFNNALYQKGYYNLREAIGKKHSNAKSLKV
smiles,measurement,setting,value
Cc1cc(Nc2ccc3ccccc3c2)n2ccnc2n1,IC50,"PfDHODH; PfDHODH IC50, Table 3, single determinations",160 nM and 140 nM
same,IC50,"PfDHODH; Table 3, average of the determinations, read-out: PfDHODH IC50 Ave (converted)",150 nM
same,IC50,PbDHODH,2800 nM
same,EC50,P. falciparum; [2],200 ± 1 nM
Cc1cc(Nc2ccc3ccccc3c2)n2nccc2n1,IC50,"PfDHODH; Table 3, single determinations, read-out: PfDHODH IC50",400 ± 90 nM
same,IC50,PbDHODH,3300 nM
same,EC50,"P. falciparum; Plasmodium falciparum, 3D7, Erythrocyte, Table 3, 3D7, average of the determinations, read-out: P. falciparum 3D7 EC50 Ave",1000 nM
same,EC50,P. falciparum; [2],990 ± 6 nM
same,EC50,"P. falciparum; Table 3, 3D7, single determinations, read-out: P. falciparum 3D7 EC50 (converted)",1100 nM
Cc1cc(Nc2ccc(C(F)(F)F)cc2)n2ncnc2n1 [drawing 22],AUC0-last increase,[1]; [3],4.4 fold
same,Cmax increase,[1]; [3],3.5 fold
same,half-life,"[1]; male, Swiss outbred, mouse, plasma, mice, oral, 50 mg/kg, read-out: apparent half-life",2.95 h
same,AUC0-last,"[1]; mice, oral, 20 mg/kg",2690 µM·min
same,Cmax,"[1]; mice, oral, 20 mg/kg",7.9 ± 2.5 µM
same,apparent half-life,"[1]; mice, oral, 20 mg/kg",1.8 h
same,adverse reactions following oral administration,"[1]; mice, oral, 20 mg/kg and 50 mg/kg",No adverse reactions were observed
same,peak plasma concentration,"[1]; mice, oral, 20 mg/kg",11 micro molar
same,AUC0-last,"[1]; mice, oral, 50 mg/kg",11757 µM·min
same,Cmax,"[1]; mice, oral, 50 mg/kg",27.6 ± 5 µM
same,time with plasma concentration above 1 μM,"[1]; mice, oral, 50 mg/kg",16 h
same,peak plasma concentration,"[1]; mice, oral, 50 mg/kg",31 micro molar
same,parasite growth,"P. berghei; 50 mg/kg, blood smear Wright-Giemsa stain, FIG. 1B",suppresses parasite growth
same,"parasite growth, twice a day rather than a single dose",P. berghei; twice a day versus single dose,Greater suppression of parasite growth
same,EC50,"P. falciparum; Plasmodium falciparum, 3D7, Erythrocyte, Table 2, 3D7, read-out: P. falciparum 3D7 EC50 (converted)",350 ± 3 nM
"Cc1nc2ncnn2c(Nc2ccc(C(F)(F)F)cc2)c1Cl [6-chloro-5-methyl-N-(4-(trifluoromethyl)phenyl)-[1,2,4]triazolo[1,5-a]pyrimidin-7-amine]",IC50,PfDHODH; [4],340 ± 60 nM
same,EC50,P. falciparum; [5],2700 ± 30 nM
"Cc1nc2nc(C)c(Cl)c(Nc3ccc(C(F)(F)F)cc3)n2n1 [6-chloro-2,5-dimethyl-N-(4-(trifluoromethyl)phenyl)-[1,2,4]triazolo[1,5-a]pyrimidin-7-amine]",IC50,PfDHODH; [4],620 ± 80 nM
same,EC50,P. falciparum; [5],7100 ± 40 nM
Cc1cc(Nc2ccc3cc4ccccc4cc3c2)n2nc(C)nc2n1,IC50,PfDHODH; [6],100 nM
same,IC50,hDHODH,> 200000 nM
same,EC50,P. falciparum; [7],230 ± 1.4 nM
Cc1cc(Nc2ccc3ccccc3c2)n2nc(C)nc2n1,IC50,PfDHODH; [6],120 ± 20 nM
same,IC50,hDHODH,> 200000 nM
same,EC50,P. falciparum; [7],< 150 nM
Cc1cc(Nc2ccc(F)c(C)c2)n2ncnc2n1,melting point,,231 °C
"Cc1nc2nc(C)c(C)c(Nc3ccc(C(F)(F)F)cc3)n2n1 [2,5,6-trimethyl-N-(4-(trifluoromethyl)phenyl)-[1,2,4]triazolo[1,5-a]pyrimidin-7-amine]",IC50,PfDHODH; [4],3000 ± 460 nM
same,EC50,P. falciparum; [5],3600 ± 4 nM
Cc1cc(Nc2ccc(Br)c(C)c2)n2nc(C)nc2n1,IC50,PfDHODH; [4],70.6 nM
same,EC50,P. falciparum; [5],80 to 120 nM
"Cc1cc(Nc2ccc(OC(F)F)cc2)n2ncnc2n1 [Compound 20, (4-Difluoromethoxy-phenyl)-(5-methyl-[1,2,4]triazolo[1,5-a]pyrimidin-7-yl)-amine]",melting point,,200 °C
CC1=NC2=NC=NC2C(Nc2ccc3ccccc3c2)=N1 (stereo not shown) [2-methyl-N-(naphthalen-2-yl)-9H-purin-6-amine],IC50,"PfDHODH; IC50 PfDHODH, Table 1",440 ± 200 nM
same,IC50,hDHODH,> 200000 nM
same,EC50,"P. falciparum; Plasmodium falciparum, Erythrocyte, read-out: EC50 P. falciparum",1600 nM
Cc1cc(Nc2cccc(Cl)c2)n2ncnc2n1 [drawing 23],melting point,,227 °C
"Cc1nc2ncnn2c(Nc2ccc(C(F)(F)F)cc2)c1C [5,6-dimethyl-N-(4-(trifluoromethyl)phenyl)-[1,2,4]triazolo[1,5-a]pyrimidin-7-amine]",IC50,PfDHODH; [4],1200 ± 330 nM
same,EC50,P. falciparum; [5],2700 ± 9 nM
